Measurements: ChEMBL document CHEMBL4507318, “Data for DCP probe BAY-985” (2021)

What was measured:
[1] = biological target: Vascular endothelial growth factor receptor 2 (Homo sapiens) (UniProt P35968)
[2] = biological target: Beta-2 adrenergic receptor (Homo sapiens) (UniProt P07550); conditions: Compound concentration 10.0 uM
[3] = biological target: 5-hydroxytryptamine receptor 7 (Homo sapiens) (UniProt P34969); conditions: Compound concentration 10.0 uM
[4] = biological target: Fibroblast growth factor receptor 2 (Homo sapiens) (UniProt P21802)
[5] = biological target: Beta-3 adrenergic receptor (Homo sapiens) (UniProt P13945); conditions: Compound concentration 10.0 uM
[6] = biological target: Histamine H4 receptor (Homo sapiens) (UniProt Q9H3N8); conditions: Compound concentration 10.0 uM
[7] = biological target: Dual specificity protein kinase CLK4 (Homo sapiens) (UniProt Q9HAZ1)
[8] = biological target: Serine/threonine-protein kinase haspin (Homo sapiens) (UniProt Q8TF76)
Sequence of Serine/threonine-protein kinase haspin (Homo sapiens) (Q8TF76 whole entry): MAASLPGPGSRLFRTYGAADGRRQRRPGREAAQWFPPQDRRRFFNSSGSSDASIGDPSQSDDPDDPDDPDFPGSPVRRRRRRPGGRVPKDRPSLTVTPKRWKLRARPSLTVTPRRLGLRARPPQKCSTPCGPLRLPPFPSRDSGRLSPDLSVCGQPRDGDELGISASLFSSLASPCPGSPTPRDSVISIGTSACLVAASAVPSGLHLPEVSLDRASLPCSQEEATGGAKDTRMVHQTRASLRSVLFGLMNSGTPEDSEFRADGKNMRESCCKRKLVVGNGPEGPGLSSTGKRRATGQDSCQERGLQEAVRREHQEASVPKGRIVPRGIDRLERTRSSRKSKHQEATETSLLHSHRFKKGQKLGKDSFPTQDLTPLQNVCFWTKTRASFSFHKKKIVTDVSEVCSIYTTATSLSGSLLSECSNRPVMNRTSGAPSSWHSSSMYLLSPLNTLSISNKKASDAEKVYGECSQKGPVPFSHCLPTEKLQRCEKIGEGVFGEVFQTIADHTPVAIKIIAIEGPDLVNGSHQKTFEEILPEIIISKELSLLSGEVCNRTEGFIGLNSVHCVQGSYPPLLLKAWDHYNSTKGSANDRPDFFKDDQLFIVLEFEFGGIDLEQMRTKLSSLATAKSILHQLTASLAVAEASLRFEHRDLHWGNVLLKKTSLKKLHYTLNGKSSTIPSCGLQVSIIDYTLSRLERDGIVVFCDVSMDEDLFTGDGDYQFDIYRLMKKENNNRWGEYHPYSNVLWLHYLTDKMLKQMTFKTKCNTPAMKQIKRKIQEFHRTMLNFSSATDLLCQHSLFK

[9] = biological target: cAMP-dependent protein kinase catalytic subunit alpha (Homo sapiens) (UniProt P17612)
[10] = biological target: Receptor-interacting serine/threonine-protein kinase 2 (Homo sapiens) (UniProt O43353)
[11] = biological target: Serine/threonine-protein kinase NLK (Homo sapiens) (UniProt Q9UBE8)
[12] = biological target: Dual specificity testis-specific protein kinase 1 (Homo sapiens) (UniProt Q15569)
[13] = biological target: Ribosomal protein S6 kinase alpha-2 (Homo sapiens) (UniProt Q15349)
[14] = biological target: Leucine-rich repeat serine/threonine-protein kinase 2 (Homo sapiens) (UniProt Q5S007)
[15] = biological target: Serine/threonine-protein kinase Nek10 (Homo sapiens) (UniProt Q6ZWH5)
Sequence of Serine/threonine-protein kinase Nek10 (Homo sapiens) (Q6ZWH5 whole entry): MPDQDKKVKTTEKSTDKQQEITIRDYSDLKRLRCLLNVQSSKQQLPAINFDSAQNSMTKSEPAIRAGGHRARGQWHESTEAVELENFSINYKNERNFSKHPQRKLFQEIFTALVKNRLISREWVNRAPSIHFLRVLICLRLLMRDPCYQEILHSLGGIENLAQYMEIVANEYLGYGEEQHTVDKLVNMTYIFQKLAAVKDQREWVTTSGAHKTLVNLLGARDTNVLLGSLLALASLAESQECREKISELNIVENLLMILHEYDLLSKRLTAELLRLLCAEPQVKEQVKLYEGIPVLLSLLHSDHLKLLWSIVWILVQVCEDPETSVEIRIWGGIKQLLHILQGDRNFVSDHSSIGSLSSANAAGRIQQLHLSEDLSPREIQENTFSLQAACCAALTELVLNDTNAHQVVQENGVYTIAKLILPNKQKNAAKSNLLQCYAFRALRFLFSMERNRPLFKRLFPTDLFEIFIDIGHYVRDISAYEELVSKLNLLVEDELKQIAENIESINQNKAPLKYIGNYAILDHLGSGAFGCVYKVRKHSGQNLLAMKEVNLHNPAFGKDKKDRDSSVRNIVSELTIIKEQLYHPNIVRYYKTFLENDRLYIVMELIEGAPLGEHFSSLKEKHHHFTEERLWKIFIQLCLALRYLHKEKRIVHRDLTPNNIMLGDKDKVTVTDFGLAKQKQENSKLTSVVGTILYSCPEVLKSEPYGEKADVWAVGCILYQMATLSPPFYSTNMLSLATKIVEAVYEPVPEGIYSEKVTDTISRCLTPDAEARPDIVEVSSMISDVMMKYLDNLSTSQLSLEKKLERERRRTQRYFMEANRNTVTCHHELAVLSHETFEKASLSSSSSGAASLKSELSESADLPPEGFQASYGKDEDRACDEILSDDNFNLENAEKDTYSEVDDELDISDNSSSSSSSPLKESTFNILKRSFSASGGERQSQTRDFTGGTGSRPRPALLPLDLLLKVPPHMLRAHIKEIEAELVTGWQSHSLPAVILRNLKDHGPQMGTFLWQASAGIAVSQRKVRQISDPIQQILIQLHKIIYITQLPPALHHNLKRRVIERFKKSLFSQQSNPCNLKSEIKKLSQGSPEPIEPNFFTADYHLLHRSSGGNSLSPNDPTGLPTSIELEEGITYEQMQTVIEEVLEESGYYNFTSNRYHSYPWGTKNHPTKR

[16] = biological target: G protein-coupled receptor kinase 4 (Homo sapiens) (UniProt P32298)
[17] = biological target: Mitogen-activated protein kinase kinase kinase 5 (Homo sapiens) (UniProt Q99683)
Sequence of Mitogen-activated protein kinase kinase kinase 5 (Homo sapiens) (Q99683 whole entry): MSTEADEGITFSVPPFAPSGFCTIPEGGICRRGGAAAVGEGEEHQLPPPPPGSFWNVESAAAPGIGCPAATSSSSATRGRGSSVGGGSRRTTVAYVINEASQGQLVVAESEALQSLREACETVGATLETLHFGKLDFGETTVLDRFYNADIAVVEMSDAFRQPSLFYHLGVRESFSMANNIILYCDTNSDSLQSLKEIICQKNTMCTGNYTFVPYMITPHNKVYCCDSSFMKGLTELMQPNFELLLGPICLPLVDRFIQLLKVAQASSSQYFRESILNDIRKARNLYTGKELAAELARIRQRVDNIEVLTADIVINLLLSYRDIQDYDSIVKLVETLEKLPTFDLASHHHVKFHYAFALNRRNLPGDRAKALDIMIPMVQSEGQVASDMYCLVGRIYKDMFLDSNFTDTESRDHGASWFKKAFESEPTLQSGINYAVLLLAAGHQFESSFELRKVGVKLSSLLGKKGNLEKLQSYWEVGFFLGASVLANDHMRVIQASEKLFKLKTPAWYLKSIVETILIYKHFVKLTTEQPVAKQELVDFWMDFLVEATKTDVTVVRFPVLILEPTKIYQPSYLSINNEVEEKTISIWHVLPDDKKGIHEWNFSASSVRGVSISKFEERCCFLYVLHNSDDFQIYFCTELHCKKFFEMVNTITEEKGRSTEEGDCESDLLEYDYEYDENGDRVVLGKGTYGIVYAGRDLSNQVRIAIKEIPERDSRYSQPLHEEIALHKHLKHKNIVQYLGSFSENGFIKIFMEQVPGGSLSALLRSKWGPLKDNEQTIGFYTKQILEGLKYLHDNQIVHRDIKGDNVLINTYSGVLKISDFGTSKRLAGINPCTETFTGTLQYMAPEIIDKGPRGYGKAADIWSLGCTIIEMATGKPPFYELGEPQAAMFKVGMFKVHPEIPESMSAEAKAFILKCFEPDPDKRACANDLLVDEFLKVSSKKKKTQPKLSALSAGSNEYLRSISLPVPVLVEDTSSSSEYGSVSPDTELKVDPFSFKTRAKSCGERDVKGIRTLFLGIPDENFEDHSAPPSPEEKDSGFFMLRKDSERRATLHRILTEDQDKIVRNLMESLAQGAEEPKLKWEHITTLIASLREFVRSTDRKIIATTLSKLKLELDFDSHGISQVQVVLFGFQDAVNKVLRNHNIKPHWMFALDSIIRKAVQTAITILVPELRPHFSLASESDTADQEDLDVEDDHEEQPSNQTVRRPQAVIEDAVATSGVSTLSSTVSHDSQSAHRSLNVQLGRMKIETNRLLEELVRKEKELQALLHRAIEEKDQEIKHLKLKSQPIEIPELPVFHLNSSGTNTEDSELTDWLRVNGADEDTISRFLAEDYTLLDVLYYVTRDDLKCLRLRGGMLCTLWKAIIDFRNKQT

[18] = biological target: BDNF/NT-3 growth factors receptor (Homo sapiens) (UniProt Q16620)
[19] = biological target: Uncharacterized serine/threonine-protein kinase SBK3 (Homo sapiens) (UniProt P0C264)
Sequence of Uncharacterized serine/threonine-protein kinase SBK3 (Homo sapiens) (P0C264 whole entry): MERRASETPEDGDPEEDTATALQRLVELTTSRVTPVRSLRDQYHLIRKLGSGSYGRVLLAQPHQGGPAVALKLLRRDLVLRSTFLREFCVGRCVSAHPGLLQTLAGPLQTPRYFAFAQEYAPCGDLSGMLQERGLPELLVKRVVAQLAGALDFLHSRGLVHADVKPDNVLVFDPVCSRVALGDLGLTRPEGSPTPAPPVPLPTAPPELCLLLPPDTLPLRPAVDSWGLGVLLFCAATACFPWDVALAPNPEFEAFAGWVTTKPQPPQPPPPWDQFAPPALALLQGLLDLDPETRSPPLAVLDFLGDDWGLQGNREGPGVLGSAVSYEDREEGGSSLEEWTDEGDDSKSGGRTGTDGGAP

[20] = biological target: Wee1-like protein kinase (Homo sapiens) (UniProt P30291)
[21] = tested on: Mast/stem cell growth factor receptor Kit (Homo sapiens), P10721 [V559D,T670I]
[22] = biological target: Mast/stem cell growth factor receptor Kit (Homo sapiens) (UniProt P10721)
[23] = biological target: Myosin light chain kinase, smooth muscle (Homo sapiens) (UniProt Q15746)
[24] = tested on: Mast/stem cell growth factor receptor Kit (Homo sapiens), P10721 [L576P]
[25] = biological target: Dual specificity tyrosine-phosphorylation-regulated kinase 1A (Homo sapiens) (UniProt Q13627)
[26] = biological target: Serine/threonine-protein kinase 32B (Homo sapiens) (UniProt Q9NY57)
[27] = biological target: Membrane-associated tyrosine- and threonine-specific cdc2-inhibitory kinase (Homo sapiens) (UniProt Q99640)
[28] = biological target: MAP kinase-activated protein kinase 2 (Homo sapiens) (UniProt P49137)
[29] = biological target: Insulin receptor (Homo sapiens) (UniProt P06213)
[30] = biological target: Mitogen-activated protein kinase kinase kinase 11 (Homo sapiens) (UniProt Q16584)
[31] = biological target: Serine/threonine-protein kinase PLK4 (Homo sapiens) (UniProt O00444)
[32] = biological target: Tyrosine-protein kinase Fes/Fps (Homo sapiens) (UniProt P07332)
[33] = tested on: Serine/threonine-protein kinase B-raf (Homo sapiens), P15056 [V600E]
[34] = biological target: Serine/threonine-protein kinase 36 (Homo sapiens) (UniProt Q9NRP7)
[35] = biological target: Interferon-induced, double-stranded RNA-activated protein kinase (Homo sapiens) (UniProt P19525)
[36] = biological target: Serine/threonine-protein kinase tousled-like 1 (Homo sapiens) (UniProt Q9UKI8)
[37] = biological target: Receptor-interacting serine/threonine-protein kinase 1 (Homo sapiens) (UniProt Q13546)
[38] = tested on: Receptor-type tyrosine-protein kinase FLT3 (Homo sapiens), P36888 [D835V]
[39] = tested on: Fibroblast growth factor receptor 3 (Homo sapiens), P22607 [G697C]
[40] = biological target: Calcium/calmodulin-dependent protein kinase type 1 (Homo sapiens) (UniProt Q14012)
[41] = biological target: Mitogen-activated protein kinase 8 (Homo sapiens) (UniProt P45983)
[42] = biological target: Transient receptor potential cation channel subfamily M member 6 (Homo sapiens) (UniProt Q9BX84)
[43] = biological target: Tyrosine-protein kinase Yes (Homo sapiens) (UniProt P07947)
[44] = biological target: Macrophage-stimulating protein receptor (Homo sapiens) (UniProt Q04912)
Sequence of Macrophage-stimulating protein receptor (Homo sapiens) (Q04912 25-304 limits assumed): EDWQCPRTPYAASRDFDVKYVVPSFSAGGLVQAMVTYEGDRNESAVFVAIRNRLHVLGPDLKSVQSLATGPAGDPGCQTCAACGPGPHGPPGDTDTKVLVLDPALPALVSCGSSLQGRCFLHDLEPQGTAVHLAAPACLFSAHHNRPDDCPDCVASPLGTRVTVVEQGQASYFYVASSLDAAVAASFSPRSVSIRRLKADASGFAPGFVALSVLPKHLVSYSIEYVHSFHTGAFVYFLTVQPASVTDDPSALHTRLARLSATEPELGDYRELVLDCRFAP
Sequence of Macrophage-stimulating protein receptor (Homo sapiens) (Q04912 310-1400 limits assumed): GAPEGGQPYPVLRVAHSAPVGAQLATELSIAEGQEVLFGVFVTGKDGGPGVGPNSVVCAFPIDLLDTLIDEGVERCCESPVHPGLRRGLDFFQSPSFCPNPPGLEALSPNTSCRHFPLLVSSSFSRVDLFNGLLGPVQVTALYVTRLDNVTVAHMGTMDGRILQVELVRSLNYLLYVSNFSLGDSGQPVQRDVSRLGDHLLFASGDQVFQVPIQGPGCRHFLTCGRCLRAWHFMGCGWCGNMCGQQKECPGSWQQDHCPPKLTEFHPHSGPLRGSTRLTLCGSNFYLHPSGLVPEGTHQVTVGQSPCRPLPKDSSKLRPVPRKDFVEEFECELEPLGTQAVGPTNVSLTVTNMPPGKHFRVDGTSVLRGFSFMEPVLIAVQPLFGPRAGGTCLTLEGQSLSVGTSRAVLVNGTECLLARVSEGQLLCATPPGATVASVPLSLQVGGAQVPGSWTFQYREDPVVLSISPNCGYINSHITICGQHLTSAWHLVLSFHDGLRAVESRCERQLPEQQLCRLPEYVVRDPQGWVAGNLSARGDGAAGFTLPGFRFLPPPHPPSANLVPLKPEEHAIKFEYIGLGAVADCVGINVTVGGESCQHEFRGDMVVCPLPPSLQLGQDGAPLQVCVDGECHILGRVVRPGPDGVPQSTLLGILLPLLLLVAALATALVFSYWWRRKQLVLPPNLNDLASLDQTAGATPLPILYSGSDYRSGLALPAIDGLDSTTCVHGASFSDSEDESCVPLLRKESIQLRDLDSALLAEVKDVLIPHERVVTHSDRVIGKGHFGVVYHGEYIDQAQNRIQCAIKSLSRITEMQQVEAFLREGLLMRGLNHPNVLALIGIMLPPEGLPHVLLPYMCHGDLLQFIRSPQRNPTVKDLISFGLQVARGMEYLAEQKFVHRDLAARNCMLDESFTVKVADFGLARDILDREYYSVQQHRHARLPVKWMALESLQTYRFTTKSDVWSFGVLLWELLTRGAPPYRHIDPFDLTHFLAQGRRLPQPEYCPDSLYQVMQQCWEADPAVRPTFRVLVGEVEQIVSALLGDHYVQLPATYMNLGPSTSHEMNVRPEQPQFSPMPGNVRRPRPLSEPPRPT

[45] = biological target: Cyclin-dependent kinase-like 1 (Homo sapiens) (UniProt Q00532)
[46] = Compound concentration 1000.0 nM
[47] = Compound concentration 100.0 nM

Molecule `CN(C)c1ncnc(-c2ccc3nc(Nc4cc(CN5CCN(C(=O)CC(F)(F)F)CC5)ccn4)[nH]c3c2)c1Cl` [BAY-440] has a residual activity [1, 46] of 74%, an inhibition [2] of 12.6% and an inhibition [3] of 13.4%. The residual activity [4, 46] was 100%, the inhibition [5] was 4.42% and the inhibition [6] was -2.29%. For the same molecule, the residual activity [7, 46] was 99%, the residual activity [8, 46] was 100% and the residual activity [9, 46] was 100%. It also gave a residual activity [10, 46] of 37%, a residual activity [11, 46] of 88% and a residual activity [12, 46] of 78%. It also gave a residual activity [13, 46] of 100%, a residual activity [14, 46] of 84% and a residual activity [15, 46] of 72%. For the same molecule, the residual activity [16, 46] was 100%, the residual activity [17, 46] was 100% and the residual activity [18, 46] was 63%. The residual activity [19, 46] was 100%, the residual activity [20, 46] was 100% and the residual activity [21, 46] was 100%. It also gave a residual activity [22, 46] of 96%, a residual activity [23, 46] of 68% and a residual activity [24, 46] of 87%. For the same molecule, the residual activity [25, 46] was 77%, the residual activity [26, 46] was 100% and the residual activity [27, 46] was 75%. The residual activity [28, 46] was 100%, the residual activity [29, 46] was 100% and the residual activity [30, 46] was 100%. For the same molecule, the residual activity [31, 46] was 76%, the residual activity [32, 46] was 100% and the residual activity [33, 46] was 84%. The residual activity [34, 46] was 98%, the residual activity [35, 46] was 100% and the residual activity [36, 46] was 89%. For the same molecule, the residual activity [37, 46] was 93%, the residual activity [38, 46] was 7% and the residual activity [39, 46] was 100%. The residual activity [40, 46] was 100%, the residual activity [41, 46] was 63% and the residual activity [42, 46] was 100%. The residual activity [43, 46] was 76%, the residual activity [44, 46] was 98% and the residual activity [45, 46] was 96%.

Work on `C[C@H](c1ccnc(Nc2nc3ccc(-c4cc(N(C)C)ncn4)cc3[nH]2)c1)N1CCN(C(=O)CC(F)(F)F)CC1` [BAY-985] yielded a residual activity [1, 47] of 100%, an inhibition [2] of 33.3% and an inhibition [3] of 16.6%. The residual activity [4, 47] was 100%, the inhibition [5] was 30.4% and the inhibition [6] was -0.75%. The residual activity [7, 47] was 82%, the residual activity [8, 47] was 100% and the residual activity [9, 47] was 100%. It also gave a residual activity [10, 47] of 71%, a residual activity [11, 47] of 88% and a residual activity [12, 47] of 98%. It also gave a residual activity [13, 47] of 89%, a residual activity [14, 47] of 94% and a residual activity [15, 47] of 100%. It also gave a residual activity [16, 47] of 100%, a residual activity [17, 47] of 100% and a residual activity [18, 47] of 100%. It also gave a residual activity [19, 47] of 100%, a residual activity [20, 47] of 96% and a residual activity [21, 47] of 99%. It also gave a residual activity [22, 47] of 100%, a residual activity [23, 47] of 100% and a residual activity [24, 47] of 91%. It also gave a residual activity [25, 47] of 98%, a residual activity [26, 47] of 100% and a residual activity [27, 47] of 83%. The residual activity [28, 47] was 100%, the residual activity [29, 47] was 100% and the residual activity [30, 47] was 92%. The residual activity [31, 47] was 96%, the residual activity [32, 47] was 75% and the residual activity [33, 47] was 100%. It also gave a residual activity [34, 47] of 97%, a residual activity [35, 47] of 100% and a residual activity [36, 47] of 76%. For the same molecule, the residual activity [37, 47] was 95%, the residual activity [38, 47] was 32% and the residual activity [39, 47] was 100%. It also gave a residual activity [40, 47] of 88%, a residual activity [41, 47] of 98% and a residual activity [42, 47] of 100%. For the same molecule, the residual activity [43, 47] was 92%, the residual activity [44, 47] was 80% and the residual activity [45, 47] was 100%.
